Test results published in EP0702015B1, “Bicyclic oxazole and thiazole substituted ethers” (Novartis AG, priority 1994, dated 1996).

Assays:
[1] = test system: rat muscle cell line (L6 myocytes); assay: L6 myocyte screen (glucose utilization); assay type: cell-based; conditions: differentiated L6 myocytes, 20 hours treatment, DMEM with 15 mM glucose, concentration producing 50 % of maximum response versus control, read-out: EC50 in the L6 myocyte test
Protocol: This is indicated in standard tests, e.g. in vitro by the L6 myocyte screen in a rat muscle cell line:
The L6 myocyte screen determines the direct effects of 1 to 300 µM concentrations of the agents on glucose utilization in the rat muscle cell line. Rat L6 myoblasts (American Type Culture Collection) are maintained in Dulbecco's modified Eagle's medium (DMEM, Gibco) containing 5 mM glucose and 10 % calf serum supplement. The L6 myoblasts are plated in 96-well microtiter plates at a density of 3000 cells/well. Differentiated myocytes are used in experiments on the 11th or 13th day after plating. All test agents are dissolved in 1 % dimethylsulfoxide (DMSO) in serum-free testing media. The DMSO has no effect on glucose utilization. Each experiment includes the following internal controls: water, glucose standard (300 mg/dl), media blank, media control, ciglitazone standard (30 µM) and an insulin dose-response curve (0.03 - 1 µM). All compounds are tested in quadruplicate in each experiment at concentrations of 1, 3, 10, 30,100 and 300 µM. The L6 cells are treated with test compound and DMEM containing 15 mM glucose for 20 hours. Glucose utilization is assessed by measurement of glucose remaining in the media using a glucose oxidase assay (Ciba-Corning #S1004B). The EC50 is the concentration of the test agent estimated to produce 50 % of the maximum response versus control.

male ob/ob mice = assay: ob/ob hypoglycemia test; assay type: in vivo; conditions: oral gavage once a day for three days, blood glucose lowering, calculated on day 3
Protocol: The antidiabetic activity is indicated in vivo e.g. in the ob/ob hypoglycemia test in male ob/ob mice, given 1 to 200 mg/kg of drug. The mice, approximately 2 to 3 months of age, weighing about 30 g, are kept in a room at a controlled ambient temperature of 22° C and a 12/12 hour light/dark cycle for at least seven days before the screen and then during testing. In the ob/ob screen, Purina rodent chow and water are available ad libitum. For each screen, mice are matched and placed in treatment groups (six mice per group) on the basis of initial blood glucose levels the day prior to screening (day 0). Animals are dosed once a day for three days with either vehicle (carboxymethylcellulose 0.5 %, with Tween-80 0.2 %) or test compound in vehicle. The animals receive 0.1 ml/10 g body weight administered orally by gavage. On day 1, blood glucose levels are sampled from the tip of the tail at 2 and 4 hours post-dose. On day 3, blood glucose levels are sampled at 2, 4 and 8 hours post-dose. Blood glucose levels are measured by the glucose oxidase method (YSI Model 27, Yellow Springs, Ohio). […] A systematic, quantitative procedure for assessing the behavioral and physiological state of the mouse, in Psychopharmacologica 12 (1968) 222-257.
Efficacy for glucose lowering is determined by comparing glucose levels of control animals to those of treated animals. […]

SMILES	EC50 [1] [µM]	EC50 in the ob/ob hypoglycemia test (male ob/ob mice)
O=C1CC[C@]2(c3ccc(Cl)c(Cl)c3)O[C@H](COc3ccc(Cl)cc3)CN12 (racemic) [Example 3, (±)-trans-2-[(4-Chlorophenoxy)methyl]-7a-(3,4-dichlorophenyl)-2,3,7,7a-tetrahydropyrrolo[2,1-b]oxazol-5(6H)-one]	~14	about 62 mg/kg
O=C1CC[C@]2(c3ccc(Cl)c(Cl)c3)O[C@H](COc3ccc(Cl)cc3)CN12 [Example 1, (-)-trans-2S-[(4-Chlorophenoxy)methyl]-7A-(3,4-dichlorophenyl)-2,3,7,7a-tetrahydropyrrolo[2.1-b]oxazol-5(6H)-one]	~10	
